Data taken from patent publication US20230416168A1 (EUROCHEM ANTWERPEN, priority 2020, published 2023).

Experiments:
[1] = system: Nitrosospira multiformis; test: Nitrification inhibition assay with Nitrosospira multiformis (nitrite level after 24 h); format: cell-based; details: for IC50 / activity at 100 µM: Nitrosospira multiformis; for IC50: 8-point dose response, 2 to 100 μM, read-out: IC50; for activity at 100 µM: tested concentration 100 μM, 24 h, normalized to DMSO (100%) and 100 μM DMP (0%), read-out: Nitrification at tested concentration (0 = maximum activity)
Summary of the method: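 Dense N. multiformis cultures (5× concentrated in 181-medium) with ammonium were incubated 24 h at 30° C with shaking, then nitrite measured by Griess reagent at 540 nm. Relative nitrification normalised per plate to DMSO and 100 μM DMP controls; IC50 from logistic fit of 8-point doses 2-100 μM.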

[2] = system: NH3 or NH2OH oxidation in N. europaea cells; test: Nitrosomonas europaea ammonia vs. hydroxylamine oxidation assay; format: cell-based; details: compounds 50 μM, NO2- after 30 min; for Nitrification from NH2OH (% compared to DMSO): 1 mM NH2OH as N-source; for Nitrification from NH3 (% compared to DMSO): NH4+ 1 mM as N-source
Experimental: Two days old, late-log phase cultures with a NO2− concentration between 10 and 20 mM were washed 3 times in fresh growth medium (without N) and finally 4 times overconcentrated via centrifugation (4000 rpm, 15 min, 4° C.). Transparent, flat bottom 96-well plate (Cat. No. 353072, Falcon® 96 Well Clear Flat Bottom Microplate, Corning®) were filled with 150 μl culture per well using a dispenser (Multidrop™ Combi Reagent Dispenser, Thermo Scientific™). Compounds (final concentration 50 μM) were added in triplicate to the multi-well plate by use of a Tecan robot (Freedom EVO®, Tecan). Thiourea (positive control for inhibition of NH3 oxidation—final concentration 100 μM) and phenylhydrazine hydrochloride (positive control for inhibition of NH2OH oxidation—final concentration 1 mM) were added to the outer two columns. Each plate was made in duplicate to add either 500 μM (NH4)2SO4 (final [NH4+]=1 mM) or 1 mM NH2OH. All plates were separately wrapped in Parafilm. Stacks of 4 plates were put on top of a 96-well plate filled with 100 μl MilliQ per well, covered with aluminum foil and shaken (±150 rpm) at 28° C. To prevent read-out of secondary effects on NO2− production, NO2− was measured only 30 min later. For this, the samples were first 2 times diluted by pipetting 15 μl in 15 μl fresh growth medium in 96-well intermediate plates (Cat. Ref. PCR-96-FS-C, 96-well PCR Microplate, Axygen®) to then mix 15 μl of the diluted samples with 15 μl Griess reagent in the wells of a transparent, flat bottom 384-well plate (Cat. No. X^7001, Low Profile Microplate, Molecular Devices) that was measured spectrophotometrically at 540 nm (EnVision, Perkin Elmer®).
To get insights on the targeted metabolic pathway and to discriminate between compounds that specifically affect NH3 oxidation or that affect another pathway, three representative novel nitrification inhibitors (Examples 1, 5 and 6) were tested in the “ammonia vs hydroxylamine oxidation assay” in which NO2− production from NH3 was compared with NO2− production from NH2OH.

| SMILES | nitrification inhibition, in words [1] | IC50 [1] [µM] | activity at 100 µM [1] [%] | Nitrification from NH2OH (% compared to DMSO) [2] [%] | Nitrification from NH3 (% compared to DMSO) [2] [%] | Average nitrification [%] in Nitrosospira multiformis ([1]; 2 μM) [%] | Average nitrification [%] in Nitrosospira multiformis ([1]; 3.5 μM) [%] | Average nitrification [%] in Nitrosospira multiformis ([1]; 6 μM) [%] | Average nitrification [%] in Nitrosospira multiformis ([1]; 11 μM) [%] | Average nitrification [%] in Nitrosospira multiformis ([1]; 19 μM) [%] | Average nitrification [%] in Nitrosospira multiformis ([1]; 33 μM) [%] | Average nitrification [%] in Nitrosospira multiformis ([1]; 57 μM) [%] | Average nitrification [%] in Nitrosospira multiformis ([1]; 100 μM) [%] |
| --- | --- | --- | --- | --- | --- | --- | --- | --- | --- | --- | --- | --- | --- |
| CN(Cc1c(Cl)nc2sccn12)CN1CCSC1=S [Example 1, 3-[[(6-chloroimidazo[2,1-b][1,3]thiazol-5-yl)methyl-methylamino]methyl]-1,3-thiazolidine-2-thione] | strongly inhibited nitrification | < 0.8 | 0 | 81 | 12 |  |  |  |  |  |  |  |  |
| CN(Cc1nc2ccccc2s1)CN1CCOC1=S [Example 5, 3-[[1,3-benzothiazol-2-ylmethyl(methyl)amino]methyl]-1,3-oxazolidine-2-thione] | strong nitrification inhibition | < 3.5 | 0 | 77 | 17 |  |  |  |  |  |  |  |  |
| S=C1NCCO1 [Example 7] |  | < 10 | 0 |  |  |  |  |  |  |  |  |  |  |
| S=c1[nH]ccs1 [Example 24, 3H-1,3-thiazole-2-thione] | very strong effect | 1.3 | 0 |  |  | 25 | 4 | 0 | 0 | 0 | 0 | 0 | 0 |
| CSc1nccs1 [Example 25, 2-(methylsulfanyI)-1,3-thiazole] |  | 140 | 53 |  |  | 81 | 80 | 80 | 76 | 74 | 67 | 62 | 53 |
